# Measured values: US10758534B2 (Vertex Pharmaceuticals Incorporated, priority 2014, dated 2020)
# Molecular target: T1, F508del (Homo sapiens, UniProt P13569, DEL508-508)
# T1 construct: expressed in transfected cells
# Assay: Protocol 2: FRET membrane potential optical assay (VIPR), identification of correction compounds
# Type: cell-based
# Settings: F508del CFTR modulator activity; compounds of Table 1; read-out: EC30
# Method in brief: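 Single-addition HTS format: F508del-expressing NIH3T3 cells pre-incubated 16 hrs at 37° C. ± compound, with 27° C. culture as positive control. Channel activation by forskolin 10 μM and genistein 20 μM upon switch to gluconate bath, pH 7.4; read-out is FRET-based depolarization signal.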
# T1 sequence (P13569 with tags, fused parts or gaps DEL508-508): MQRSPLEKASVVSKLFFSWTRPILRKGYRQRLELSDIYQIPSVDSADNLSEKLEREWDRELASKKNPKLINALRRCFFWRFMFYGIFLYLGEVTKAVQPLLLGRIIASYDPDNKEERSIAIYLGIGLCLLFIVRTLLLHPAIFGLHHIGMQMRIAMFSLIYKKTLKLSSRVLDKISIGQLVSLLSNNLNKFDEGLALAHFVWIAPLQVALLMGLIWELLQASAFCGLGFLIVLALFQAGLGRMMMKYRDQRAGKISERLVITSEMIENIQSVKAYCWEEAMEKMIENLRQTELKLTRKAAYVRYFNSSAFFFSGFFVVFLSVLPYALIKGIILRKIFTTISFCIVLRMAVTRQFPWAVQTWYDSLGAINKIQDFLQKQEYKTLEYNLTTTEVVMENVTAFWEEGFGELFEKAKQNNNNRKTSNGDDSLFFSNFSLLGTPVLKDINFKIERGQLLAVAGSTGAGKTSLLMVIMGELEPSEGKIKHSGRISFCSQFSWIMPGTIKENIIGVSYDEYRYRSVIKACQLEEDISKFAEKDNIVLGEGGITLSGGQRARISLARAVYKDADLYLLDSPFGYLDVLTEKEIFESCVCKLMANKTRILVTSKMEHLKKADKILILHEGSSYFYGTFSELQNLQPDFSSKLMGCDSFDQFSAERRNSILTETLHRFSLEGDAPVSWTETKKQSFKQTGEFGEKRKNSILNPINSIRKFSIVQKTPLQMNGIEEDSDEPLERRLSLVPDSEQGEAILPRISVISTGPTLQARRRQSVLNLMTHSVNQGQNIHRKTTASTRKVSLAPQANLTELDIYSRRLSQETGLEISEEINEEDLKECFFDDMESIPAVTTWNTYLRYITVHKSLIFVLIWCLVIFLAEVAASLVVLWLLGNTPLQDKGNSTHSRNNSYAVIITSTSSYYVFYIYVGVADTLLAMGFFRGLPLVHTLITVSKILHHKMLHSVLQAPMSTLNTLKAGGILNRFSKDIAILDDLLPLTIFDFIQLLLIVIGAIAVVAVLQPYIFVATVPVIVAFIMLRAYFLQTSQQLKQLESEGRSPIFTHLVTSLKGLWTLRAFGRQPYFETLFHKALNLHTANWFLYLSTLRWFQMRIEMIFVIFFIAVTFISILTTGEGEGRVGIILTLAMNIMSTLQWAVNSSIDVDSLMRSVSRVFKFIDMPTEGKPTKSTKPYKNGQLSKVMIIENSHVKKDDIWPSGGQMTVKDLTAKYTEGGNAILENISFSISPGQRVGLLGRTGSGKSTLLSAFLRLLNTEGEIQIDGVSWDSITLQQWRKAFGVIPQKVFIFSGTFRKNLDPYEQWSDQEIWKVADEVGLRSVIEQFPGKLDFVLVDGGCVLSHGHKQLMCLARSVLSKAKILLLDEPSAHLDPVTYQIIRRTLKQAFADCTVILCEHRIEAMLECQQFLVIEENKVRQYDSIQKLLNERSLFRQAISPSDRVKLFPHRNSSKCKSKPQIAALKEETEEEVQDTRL
row,EC30 [nM],Compound
1,< 3000,"CC1CN(c2ncccc2C(=O)NS(=O)(=O)c2cccc(N(C)Cc3cccc(Cl)c3)n2)C(C)(C)C1 (stereo not shown) [Compound 2378, N—[[6-[(3-chlorophenyl)methyl-methyl-amino]-2-pyridyl]sulfonyl]-2-(2,2,4-trimethylpyrrolidin-1-yl)pyridine-3-carboxamide]"
2,< 3000,"CC1CN(c2ncccc2C(=O)NS(=O)(=O)c2cccc(Nc3cccc(C(F)(F)F)c3)n2)C(C)(C)C1 (stereo not shown) [Compound 2381, N—[[6-[3-(trifluoromethyl)anilino]-2-pyridyl]sulfonyl]-2-(2,2,4-trimethylpyrrolidin-1-yl)pyridine-3-carboxamide]"
3,< 3000,"CC1CN(c2ncccc2C(=O)NS(=O)(=O)c2cccc(N3CCCc4ccccc43)n2)C(C)(C)C1 (stereo not shown) [Compound 2382, N—[[6-(3,4-dihydro-2H-quinolin-1-yl)-2-pyridyl]sulfonyl]-2-(2,2,4-trimethylpyrrolidin-1-yl)pyridine-3-carboxamide]"
4,3000 to 10000,"CC1CN(c2ncccc2C(=O)NS(=O)(=O)c2cccc(N3CCC(CCN(C)C)CC3)n2)C(C)(C)C1 (stereo not shown) [Compound 2383, N—[[6-[4-(2-dimethylaminoethyl)-1-piperidyl]-2-pyridyl]sulfonyl]-2-(2,2,4-trimethylpyrrolidin-1-yl)pyridine-3-carboxamide]"
5,< 3000,"CC1CN(c2ncccc2C(=O)NS(=O)(=O)c2cccc(N3CCc4cc(Cl)ccc43)n2)C(C)(C)C1 (stereo not shown) [Compound 2385, N—[[6-(5-chloroindolin-1-yl)-2-pyridyl]sulfonyl]-2-(2,2,4-trimethylpyrrolidin-1-yl)pyridine-3-carboxamide]"
6,3000 to 10000,"CC(=O)Nc1cccc(Nc2cccc(S(=O)(=O)NC(=O)c3cccnc3N3CC(C)CC3(C)C)n2)c1 (stereo not shown) [Compound 2387, N—[[6-(3-acetamidoanilino)-2-pyridyl]sulfonyl]-2-(2,2,4-trimethylpyrrolidin-1-yl)pyridine-3-carboxamide]"
7,3000 to 10000,"CC1CN(c2ncccc2C(=O)NS(=O)(=O)c2cccc(Nc3ccc4[nH]ncc4c3)n2)C(C)(C)C1 (stereo not shown) [Compound 2389, N—[[6-(1H-indazol-5-ylamino)-2-pyridyl]sulfonyl]-2-(2,2,4-trimethylpyrrolidin-1-yl)pyridine-3-carboxamide]"
8,< 3000,"CC1CN(c2ncccc2C(=O)NS(=O)(=O)c2cccc(OCc3c(Cl)cccc3Cl)n2)C(C)(C)C1 (stereo not shown) [Compound 2390, N—[[6-[(2,6-dichlorophenyl)methoxy]-2-pyridyl]sulfonyl]-2-(2,2,4-trimethylpyrrolidin-1-yl)pyridine-3-carboxamide]"
9,< 3000,"Cc1cccc(CNc2cccc(S(=O)(=O)NC(=O)c3cccnc3N3CC(C)CC3(C)C)n2)c1 (stereo not shown) [Compound 2391, N—[[6-(m-tolylmethylamino)-2-pyridyl]sulfonyl]-2-(2,2,4-trimethylpyrrolidin-1-yl)pyridine-3-carboxamide]"
10,3000 to 10000,"CC1CN(c2ncccc2C(=O)NS(=O)(=O)c2cccc(N3CC[C@H](F)C3)n2)C(C)(C)C1 (stereo partly drawn) [Compound 2393, N—[[6-[(3S)-3-fluoropyrrolidin-1-yl]-2-pyridyl]sulfonyl]-2-(2,2,4-trimethylpyrrolidin-1-yl)pyridine-3-carboxamide]"
11,3000 to 10000,"CC1CN(c2ncccc2C(=O)NS(=O)(=O)c2cccc(OCC3CCOC3)n2)C(C)(C)C1 (stereo not shown) [Compound 2396, N—[[6-(tetrahydrofuran-3-ylmethoxy)-2-pyridyl]sulfonyl]-2-(2,2,4-trimethylpyrrolidin-1-yl)pyridine-3-carboxamide]"
12,< 3000,"CC1CN(c2ncccc2C(=O)NS(=O)(=O)c2cccc(Nc3ccccc3C(F)(F)F)n2)C(C)(C)C1 (stereo not shown) [Compound 2397, N—[[6-[2-(trifluoromethyl)anilino]-2-pyridyl]sulfonyl]-2-(2,2,4-trimethylpyrrolidin-1-yl)pyridine-3-carboxamide]"

# Continued, compound first:
row,Compound,EC30 [nM]
1,"COc1cc(-c2ccc(C(=O)NS(=O)(=O)c3cccnc3N)c(N3C[C@@H](C)CC3(C)C)n2)ccc1C [Compound 2379, N-[(2-amino-3-pyridyl)sulfonyl]-6-(3-methoxy-4-methyl-phenyl)-2-[(4S)-2,2,4-trimethylpyrrolidin-1-yl]pyridine-3-carboxamide]",< 3000
2,"COc1c(C)cccc1-c1ccc(C(=O)NS(=O)(=O)c2cccnc2N)c(N2C[C@@H](C)CC2(C)C)n1 [Compound 2380, N-[(2-amino-3-pyridyl)sulfonyl]-6-(2-methoxy-3-methyl-phenyl)-2-[(4S)-2,2,4-trimethylpyrrolidin-1-yl]pyridine-3-carboxamide]",< 3000
3,"CCOc1ccc(-c2cnc(N3CC(C)CC3(C)C)c(C(=O)NS(=O)(=O)c3cccc(N)n3)c2)cn1 (stereo not shown) [Compound 2384, N-[(6-amino-2-pyridyl)sulfonyl]-5-(6-ethoxy-3-pyridyl)-2-(2,2,4-trimethylpyrrolidin-1-yl)pyridine-3-carboxamide]",< 3000
4,"C[C@@H]1CN(c2nc(-c3cccc(F)c3O)ccc2C(=O)NS(=O)(=O)c2cccc(N)n2)C(C)(C)C1 [Compound 2386, N-[(6-amino-2-pyridyl)sulfonyl]-6-(3-fluoro-2-hydroxy-phenyl)-2-[(4S)-2,2,4-trimethylpyrrolidin-1-yl]pyridine-3-carboxamide]",< 3000
5,"COc1cc(F)c(-c2ccc(C(=O)NS(=O)(=O)c3cccnc3N)c(N3C[C@@H](C)CC3(C)C)n2)cc1F [Compound 2388, N-[(2-amino-3-pyridyl)sulfonyl]-6-(2,5-difluoro-4-methoxy-phenyl)-2-[(4S)-2,2,4-trimethylpyrrolidin-1-yl]pyridine-3-carboxamide]",< 3000
6,"C[C@@H]1CN(c2nc(-c3cccc(C(F)(F)F)c3)ccc2C(=O)NS(=O)(=O)c2cccc(N)n2)C(C)(C)C1 [Compound 2392, N-[(6-amino-2-pyridyl)sulfonyl]-6-[3-(trifluoromethyl)phenyl]-2-[(4S)-2,2,4-trimethylpyrrolidin-1-yl]pyridine-3-carboxamide]",< 3000
7,"Cc1ccc(F)cc1-c1ccc(C(=O)NS(=O)(=O)c2cccc(N)n2)c(N2C[C@@H](C)CC2(C)C)n1 [Compound 2394, N-[(6-amino-2-pyridyl)sulfonyl]-6-(5-fluoro-2-methyl-phenyl)-2-[(4S)-2,2,4-trimethylpyrrolidin-1-yl]pyridine-3-carboxamide]",< 3000
8,"CC(C)Cc1ccc(-c2cnc(N3CC(C)CC3(C)C)c(C(=O)NS(=O)(=O)c3cccc(N)n3)c2)cc1 (stereo not shown) [Compound 2395, N-[(6-amino-2-pyridyl)sulfonyl]-5-(4-isobutylphenyl)-2-(2,2,4-trimethylpyrrolidin-1-yl)pyridine-3-carboxamide]",< 3000
9,"CC(C)COc1cc(F)cc(-c2ccc(C(=O)NS(=O)(=O)N3CC(C)(O)C3)c(N3C[C@@H](C)CC3(C)C)n2)c1 [Compound 2398, 6-(3-fluoro-5-isobutoxy-phenyl)-N-(3-hydroxy-3-methyl-azetidin-1-yl)sulfonyl-2-[(4S)-2,2,4-trimethylpyrrolidin-1-yl]pyridine-3-carboxamide]",< 3000
10,"CC1CN(c2ncc(-c3ccc(Cl)cc3)cc2C(=O)NS(=O)(=O)c2cccc(N)n2)C(C)(C)C1 (stereo not shown) [Compound 2399, N-[(6-amino-2-pyridyl)sulfonyl]-5-(4-chlorophenyl)-2-(2,2,4-trimethylpyrrolidin-1-yl)pyridine-3-carboxamide]",< 3000
